Reference: US20030004172A1, “Fused pyrimidinone matrix metalloproteinase inhibitors” (priority 2001, published 2003)

What follows are compounds tested against MMP-13CD (catalytic domain of collagenase-3) (Homo sapiens, UniProt P45452) (assay: Thiopeptolide substrate hydrolysis inhibition assay, MMP-13CD). Conditions: Table I; thiopeptolide substrate, HEPES pH 7.0, 22° C.; read-out: MMP-13CD IC50.
Format: biochemical
Excerpt: Thiopeptolide substrates show virtually no decomposition or hydrolysis at or below neutral pH in the absence of a matrix metalloproteinase enzyme.

`CC(CNC(=O)c1cc2c(=O)n(Cc3ccccc3)c(=O)n(C)c2s1)c1ccccc1` (stereo not shown) [Example 330, 3-Benzyl-1-methyl-2,4-dioxo-1,2,3,4-tetrahydro-thieno[2,3-d]pyrimidine-6-carboxylic acid (2-phenyl-propyl)-amide] and `Cn1c(=O)n(Cc2ccccc2)c(=O)c2cc(C(=O)OCCCc3ccccc3)sc21` [Example 181, 3-Benzyl-1-methyl-2,4-dioxo-1,2,3,4-tetrahydro-thieno[2,3-d]pyrimidine-6-carboxylic acid 3-phenyl-propyl ester] cannot be ordered by IC50: > 100 µM for the first, > 100 µM for the second.

First: COc1cccc(COC(=O)c2cc3c(=O)n(Cc4ccccc4)c(=O)n(C)c3s2)c1 [Example 193, 3-Benzyl-1-methyl-2,4-dioxo-1,2,3,4-tetrahydro-thieno[2,3-d]pyrimidine-6-carboxylic acid 3-methoxy-benzyl ester]
Second: Cn1c(=O)n(Cc2ccc(Cl)nc2)c(=O)c2cc(C(=O)OCc3ccccc3)sc21 [Example 136, 3-(6-Chloro-pyridin-3-ylmethyl)-1-methyl-2,4-dioxo-1,2,3,4tetrahydro-thieno[2,3-d]pyrimidine-6-carboxylic acid benzyl ester]
The IC50 of the first is 15-fold lower: 0.0034 µM for the first, 0.051 µM for the second. The first is the more potent here.

Compared with `Cn1c(=O)n(Cc2ccc(C(=O)O)cc2)c(=O)c2cc(C(=O)NCc3cc(C(F)(F)F)cc(C(F)(F)F)c3)sc21` [Example 57, 4-[6-(3,5-Bis-trifluoromethyl-benzylcarbamoyl)-1-methyl-2,4-dioxo-1,4-dihydro-2H-thieno[2,3-d]pyrimidin-3-ylmethyl]-benzoic acid], `COc1ccc(CNC(=O)c2cc3c(=O)n(Cc4ccc(C(=O)O)cc4)c(=O)n(C)c3s2)cc1` [Example 52, 4-[6-(4-Methoxy-benzylcarbamoyl)-1-methyl-2,4-dioxo-1,4-dihydro-2H-thieno[2,3-d]pyrimidin-3-ylmethyl]-benzoic acid] is 1400-fold lower in IC50: 5.6 µM for the first, 0.00395 µM for the second. The second is the more potent here.

First: C/C=C/Cn1c(=O)c2cc(C(=O)NCc3cccc(OC)c3)sc2n(C)c1=O [Example 284]
Second: CCCCC(CC)Cn1c(=O)c2cc(C(=O)NCc3cccc(OC)c3)sc2n(C)c1=O (stereo not shown) [Example 281]
The IC50 of the first is 5.9-fold lower: 1.5 µM for the first, 8.9 µM for the second. The first is the more potent here.

Going from `Cc1c(C(=O)OCc2ccccc2)sc2[nH]c(=O)n(-c3ccc([N+](=O)[O-])cc3)c(=O)c12` [Example 8, 5-Methyl-3-(4-nitro-phenyl)-2,4-dioxo-1,2,3,4-tetrahydro-thieno[2,3-d]-6-carboxylic acid benzyl ester] to `Cn1c(=O)n(Cc2ccc(S(C)(=O)=O)cc2)c(=O)c2cc(C(=O)OCc3ccccc3)sc21` [Example 102, 3-(4-Methanesulfonyl-benzyl)-1-methyl-2,4-dioxo-1,2,3,4-tetrahydro-thieno[2,3-d]pyrimidine-6-carboxylic acid benzyl ester], the IC50 falls from 15 µM to 0.034 µM (440-fold). The second is the more potent here.

`Cc1ccc(CNC(=O)c2cc3c(=O)n(Cc4ccccc4)c(=O)n(C)c3s2)o1` [Example 346, 3-Benzyl-1-methyl-2,4-dioxo-1,2,3,4-tetrahydro-thieno[2,3-d]pyrimidine-6-carboxylic acid (5-methyl-furan-2-ylmethyl)-amide] and `COc1ccc(CNC(=O)c2cc3c(=O)n(Cc4ccccc4)c(=O)n(C)c3s2)c(OC)c1` [Example 356, 3-Benzyl-1-methyl-2,4-dioxo-1,2,3,4-tetrahydro-thieno[2,3-d]pyrimidine-6-carboxylic acid 2,4-dimethoxy-benzylamide] are within 1.5-fold of each other in IC50: 9.9 µM for the first, 10 µM for the second.

Compared with `COc1ccc(CNC(=O)c2cc3c(=O)n(Cc4ccc(C(=O)OC(C)(C)C)cc4)c(=O)n(C)c3s2)cc1OC` [Example 53, 4-[6-(3,4-Dimethoxy-benzylcarbamoyl)-1-methyl-2,4-dioxo-1,4-dihydro-2H-thieno[2,3-d]pyrimidin-3-ylmethyl]-benzoic acid tert-butyl ester], `COc1ccc(CNC(=O)c2cc3c(=O)n(Cc4ccccc4)c(=O)n(C)c3s2)cc1OC` [Example 324, 3-Benzyl-1-methyl-2,4-dioxo-1,2,3,4-tetrahydro-thieno[2,3-d]pyrimidine-6-carboxylic acid 3,4-dimethoxy-benzylamide] is higher in IC50: 30 µM for the first, > 100 µM for the second.

First: C#CCn1c(=O)c2cc(C(=O)OCc3ccccc3)sc2n(C)c1=O [Example 130, 1-Methyl-2,4-dioxo-3-prop-2-ynyl-1,2,3,4-tetrahydro-thieno[2,3-d]pyrimidine-6-carboxylic acid benzyl ester]
Second: Cn1c(=O)n(Cc2ccccc2C#N)c(=O)c2cc(C(=O)OCc3ccccc3)sc21 [Example 122, 3-(2-Cyano-benzyl)-1-methyl-2,4-dioxo-1,2,3,4-tetrahydro-thieno[2,3-d]pyrimidine-6-carboxylic acid benzyl ester]
The IC50 of the first is 46-fold lower: 0.097 µM for the first, 4.5 µM for the second.

Compared with `Cn1c(=O)n(Cc2ccccc2C(F)(F)F)c(=O)c2cc(C(=O)OCc3ccccc3)sc21` [Example 139, 1-Methyl-2,4-dioxo-3-(2-trifluoromethyl-benzyl)-1,2,3,4-tetrahydro-thieno[2,3-d]pyrimidine-6-carboxylic acid benzyl ester], `Cn1c(=O)n(Cc2ccc(C(F)(F)F)cc2C(F)(F)F)c(=O)c2cc(C(=O)OCc3ccccc3)sc21` [Example 111, 3-(2,4-Bis-trifluoromethyl-benzyl)-1-methyl-2,4-dioxo-1.2.3.4-tetrahydro-thieno[2,3-d]pyrimidine-6-carboxylic acid benzyl ester] is 13-fold higher in IC50: 0.25 µM for the first, 3.2 µM for the second. The first is the more potent here.

First: COc1ccc(CNC(=O)c2cc3c(=O)n(CC#Cc4ccccc4)c(=O)n(C)c3s2)cc1 [Example 385, 1-Methyl-2,4-dioxo-3-(3-phenyl-prop-2-ynyl)-1,2,3,4-tetrahydro-thieno[2,3-d]pyrimidine-6-carboxylic acid 4-methoxy-benzylamide]
Second: COc1cccc(CNC(=O)c2cc3c(=O)n(CCS(=O)(=O)Cc4ccccc4)c(=O)n(C)c3s2)c1 [Example 282]
The IC50 of the first is 1400-fold lower: 0.007 µM for the first, 10 µM for the second.

First: COc1cccc(CNC(=O)c2cc3c(=O)n(CCCCCC#N)c(=O)n(C)c3s2)c1 [Example 283]
Second: COc1cccc(CNC(=O)c2cc3c(=O)n(Cc4ccc(OC(C)(C)C(=O)OC(C)(C)C)cc4)c(=O)n(C)c3s2)c1 [Example 95, 2-{4-[6-(3-Methoxy-benzylcarbamoyl)-1-methyl-2,4-dioxo-1,4-dihydro-2H-thieno[2,3-d]pyrimidin-3-ylmethyl]-phenoxy}-2-methyl-propionic acid tert-butyl ester]
The IC50 of the first is 17-fold higher: 1.7 µM for the first, 0.103 µM for the second.

Compared with `Cn1c(=O)n(Cc2ccccc2)c(=O)c2cc(C(=O)OCCCc3ccccn3)sc21` [Example 194, 3-Benzyl-1-methyl-2,4-dioxo-1,2,3,4-tetrahydro-thieno[2,3-d]pyrimidine-6-carboxylic acid 3-pyridin-2-yl-propyl ester], `CCOCCOC(=O)c1cc2c(=O)n(Cc3ccccc3)c(=O)n(C)c2s1` [Example 210, 3-Benzyl-1-methyl-2,4-dioxo-1,2,3,4-tetrahydro-thieno[2,3-d]pyrimidine-6-carboxylic acid 2-ethoxy-ethyl ester] is 73-fold lower in IC50: 88 µM for the first, 1.2 µM for the second.

First: COc1ccc(CNC(=O)c2cc3c(=O)n(CCS(=O)(=O)c4cccc(C(F)(F)F)c4)c(=O)n(C)c3s2)cc1 [Example 245, 1-Methyl-2,4-dioxo-3-[2-(3-trifluoromethyl-benzenesulfonyl)-ethyl]-1,2,3,4-tetrahydro-thieno[2,3-d]pyrimidine-6-carboxylic acid 4-methoxy-benzylamide]
Second: Cn1c(=O)n(Cc2ccc(C(=O)O)cc2)c(=O)c2cc(C(=O)NCc3ccc(S(C)(=O)=O)cc3)sc21 [Example 81, 4-[6-(4-Methanesulfonyl-benzylcarbamoyl)-1-methyl-2,4-dioxo-1,4-dihydro-2H-thieno[2,3-d]pyrimidin-3-ylmethyl]-benzoic acid]
The IC50 of the first is 7.7-fold higher: 30 µM for the first, 3.9 µM for the second. The second is the more potent here.

First: Cn1c(=O)n(Cc2ccccc2)c(=O)c2cc(C(=O)OCc3c(Cl)cccc3Cl)sc21 [Example 149, 3-Benzyl-1-methyl-2,4-dioxo-1,2,3,4-tetrahydro-thieno[2,3-d]pyrimidine-6-carboxylic acid 2,6-dichloro-benzyl ester]
Second: Cn1c(=O)n(Cc2ccccc2)c(=O)c2cc(C(=O)OCc3cc4ccccc4s3)sc21 [Example 304, 3-Benzyl-1-methyl-2,4-dioxo-1,2,3,4-tetrahydro-thieno[2,3-d]pyrimidine-6-carboxylic acid benzo[b]thiophen-2-ylmethyl ester]
The IC50 of the first is 4.8-fold higher: 15 µM for the first, 3.1 µM for the second. The second is the more potent here.

Compared with `Cn1c(=O)n(Cc2ccccc2)c(=O)c2cc(C(=O)OCCC3CCCCN3)sc21` (stereo not shown) [Example 195, 3-Benzyl-1-methyl-2,4-dioxo-1,2,3,4-tetrahydro-thieno[2,3-d]pyrimidine-6-carboxylic acid 2-piperidin-2-yl-ethyl ester], `Cn1c(=O)n(Cc2ccccc2CS(=O)(=O)c2ccccc2)c(=O)c2cc(C(=O)OCc3ccccc3)sc21` [Example 137, 3-(2-Benzenesulfonylmethyl-benzyl)-1-methyl-2,4-dioxo-1,2,3,4tetrahydro-thieno[2,3-d]pyrimidine-6-carboxylic acid benzyl ester] is lower in IC50: > 100 µM for the first, 8.3 µM for the second.

First: COc1cccc(COC(=O)c2cc3c(=O)n(Cc4ccc(C#N)cc4)c(=O)[nH]c3s2)c1 [Example 66, 3-(4-Cyano-benzyl)-2,4-dioxo-1,2,3,4-tetrahydro-thieno[2,3-d]pyrimidine-6-carboxylic acid 3-methoxy-benzyl ester]
Second: O=C(OCc1ccc2c(c1)OCO2)c1cc2c(=O)n(Cc3ccccc3)c(=O)[nH]c2s1 [Example 10, 3-Benzyl-2,4-dioxo-1,2,3,4-tetrahydro-thieno[2,3-d]pyrimidine-6-carboxylic acid 1,3-benzodioxol-5-ylmethyl ester]
The IC50 of the first is 2.5-fold lower: 0.0275 µM for the first, 0.068 µM for the second.

Compared with `Cn1c(=O)n(Cc2ccc(-c3nnn[nH]3)cc2)c(=O)c2cc(C(=O)NCc3ccc(F)cc3)sc21` [Example 87, 1-Methyl-2,4-dioxo-3-[4-(1H-tetrazol-5-yl)-benzyl]-1,2,3,4-tetrahydro-thieno[2,3-d]pyrimidine-6-carboxylic acid 4-fluoro-benzylamide], `Cn1c(=O)n(CC(O)COc2cccc3ccccc23)c(=O)c2cc(C(=O)OCc3ccccc3)sc21` (stereo not shown) [Example 126, 3-[2-Hydroxy-3-(naphthalen-1-yloxy)-propyl]-1-methyl-2,4-dioxo-1,2,3,4-tetrahydro-thieno[2,3-d]pyrimidine-6-carboxylic acid benzyl ester] is 700-fold higher in IC50: 0.0185 µM for the first, 13 µM for the second.
